Test results from patent US7767232B2, “Control of nitric oxide bioactivity by perfluorocarbons” (New York University, priority 2002, dated 2010).

What was measured:
nitrosothiols formation = assay: Effect of α-dihydrolipoic acid on nitrosothiol formation and vasorelaxation in the presence of perfluorocarbons; settings: FIG. 8, in vitro and in vivo
Excerpt: If delivered at small concentrations, i.e., less than 1% v/v, and in conjunction with low molecular weight nucleophiles, such as thiols or mixtures of thiols, perfluorocarbons act as a powerful vasodilator rather than as a vasoconstrictor. NO^+ originated from N2O3 in the perfluorocarbon micelles can be transferred to various low molecular weight nucleophiles, exemplified as RSH, by two possible pathways, as shown in FIG. 7. Direct attack on RSH is possible at the surface of perfluorocarbon micelles or inside the micelles, if the RSH were hydrophobic enough to enter it, as shown in pathway I of FIG. 7. Additionally, NO can reach various RSH via a transnitrosation reaction by using a lipophilic low molecular weight “shuttle”, as shown in FIG. 7. One example of such an NO shuttle is α-lipoic acid (α-LA), which is normally present in the circulation at low (micromolar) concentrations (Keipert, 2001). α-lipoic acid has a highly hydrophobic tail (FIG. 7A), which can readily penetrate the perfluorocarbon micelle where it is nitrosated. Since both SH groups of α-dihydro-lipoic acid are located next to each other, upon nitrosation they would almost immediately form an S-S adduct and release NO^+. […]

rats [1] = assay: Plasma low molecular weight S-nitrosothiols and mean arterial pressure after Perftoran and thiols in rats; format: in vivo, rat; settings: cysteine 1 mg/kg intravenously, without perfluorocarbon
Description: Plasma low molecular weight-S-nitrosothiols were determined using CuCl2 to displace NO from thiol residues followed by electrochemical detection of released NO (Rafikova et al., 2002). The concentration of CuCl2, 40 μM, was selected to decompose predominantly low molecular weight S-nitrosothiols.

rats [2] = assay: Relation of perfluorocarbon hemodynamic effects to NO: L-NAME and potassium nitrite treated rats, mean arterial pressure; format: in vivo, rat

## O=C(O)CCCC[C@@H](S)CCS [α-dihydrolipoic acid]
Nitrosothiols formation
  effect on formation of nitrosothiols and vasorelaxation: simulating effect

## N[C@@H](CS)C(=O)O [cysteine, L-cysteine]
Rats [1]
  effect on blood pressure: virtually no effect
  effect on plasma low molecular weight S-nitrosothiols: virtually no effect

## O=N[O-].[K+] [potassium nitrite]
Rats [2]; 1 mg/kg potassium nitrite about 90 minutes after L-NAME
  effect on mean arterial pressure after L-NAME: partially restored mean arterial pressure
Rats [2]; nitrite-treated (L-NAME) rats without Perftoran, same time
  mean arterial pressure above the baseline: about 24 mmHg
